Assay results: patent US9446051B2, “Neuroprotection and myelin repair using nestorone®” (The Population Council, Inc., priority 2009, dated 2016)

How the values were obtained:
[1] = tested on: neural progenitor cell (NPC); experiment: Neural progenitor cell proliferation, BrdU chemiluminescence ELISA; format: cell-based, rat; conditions: for proliferation of progenitor cells compared with progesterone: FIG. 3 and FIG. 4; for NPC proliferation (BrdU incorporation) compared with progesterone: at 24 hours, FIGS. 6A-D
Protocol: In vitro studies were carried out to determine neural progenitor cell (NPC) regeneration in rats. Cell proliferation was determined by S phase incorporation of BrdU. After 4 to 6 hours starvation (medium without supplements), rNPCs were loaded with 10 μM BrdU in the presence or absence of bFGF and varying concentrations of P4 or test progestins in unsupplemented maintenance medium for 1d. The rNPCs were then processed as described previously (1, 14). After subtracting the value of the blank (without BrdU loading), data were analyzed using a one-way ANOVA, followed by a Neuman-Keuls post hoc test.

[2] = tested on: primary hippocampal neurons; experiment: Neuroprotection of primary hippocampal neurons against glutamate, LDH release; format: cell-based; conditions: for neuroprotective efficacy against 200 μM glutamate (LDH release) compared with progesterone: dose-response, FIGS. 7A-F
Protocol: The effect of NES and other progestins on CNS plasticity and the neuroprotective efficacy against glutamate toxicity has also been evaluated. LDH was measured, as a well-accepted assay, to determine such effect after exposure of the cells to glutamate, and the neuronal viability was assessed under the action of various progestins.
Comparisons of neuroprotection against neurodegenerative insults were carried out. Efficacy was determined in connection with the protection of primary hippocampal neurons against degeneration induced by excitoxic glutamate. Hippocampal neuronal cultures grown on […] culture plates for 7d in vitro were pretreated with vehicle alone or test compounds, followed by exposure to 200 μM glutamate as previously described (13). After glutamate exposure, cultures were washed with HEPES-buffered saline solution and replaced with fresh NBM containing the test compounds or combinations. Cultures were returned to the incubator and incubated for 24 hours prior to analysis of neuronal viability using colorimetric LDH release in the media. Dose-response analysis was conducted for each of the progestins tested, and the results are shown in FIGS. 7A-F. Neuroprotective efficiency was calculated as follows: NE=(Vsample−Vglutamate)/(Vsubcontrol−Vglutamate).

[3] = tested on: primary hippocampal neuron cultures; conditions: cited from earlier work; for protection against glutamate toxicity: alone or in combination, 48 hours before glutamate insult
[4] = tested on: hippocampus of Sprague-Dawley ovariectomized female rats; experiment: In vivo NPC proliferation and cell viability in ovariectomized rats (Western blot, FACS of BrdU+ cells); set-up: species or system rat; conditions: for PCNA expression at the protein level: FIG. 8A
Protocol: The generalized ability of the above in vitro findings to the in vivo condition were investigated. Analyses of NPC proliferation in rats and cell viability were conducted in three-month-old Sprague-Dawley ovariectomized female rats with various of the progestins. […] In order to assess the total number of BrdU+ cells, the contralateral hippocampal hemisphere used for protein analysis was fixed and processed by FACS analysis. The total number of BrdU+ cells per each hippocampus was determined and normalized to that of vehicle control. […] In order to measure cell viability in terms of promotion of mitochondrial function and reduction in oxidative damage expression of the alpha subunit of ATP synthase-Complex V (CVα) of the mitochondrial oxidative phosphorylation pathway was assessed by Western blot analysis.

Bax/Bcl-2 = experiment: In vivo apoptotic activity, Bax/Bcl-2 ratio by Western blot
Description: The effects of various progestins on apoptosis was studied using Western blot analysis to determine the expression level of Bax, an apoptosis mediator by […] to the mitochondria to release apoptotic factors such as cytochrome c and Bcl-2. The ratio of Bax to Bcl-2 was used as an indicator of in vivo apoptotic activity.

[5] = tested on: hippocampi of ovariectomized female Sprague Dawley rats; format: in vivo; conditions: stated 'as noted above'
Protocol: The impact of the combination of 17β-estradiol (E2) and various progestins on neurogenesis and cell viability […] was also carried out. Young adult ovariectomized female Sprague Dawley rates were thus divided into six groups and received injection of either E2 alone or E2 combined with one of the progestins. Hippocampi were isolated 24 hours later for Western blot analysis and flow cytometry to determine the impact of treatment on cell viability and neurogenesis respectively. The expression level of PCNA was assessed to determine the impact of the treatment compounds on entry into the cell cycle required for neurogenesis.

[6] = tested on: androgenic, estrogenic and glucocorticoid responses; conditions: cited from earlier work
[7] = tested on: organotypic neonatal rat or mouse cerebellar slice culture; experiment: Myelination in organotypic cerebellar slice culture, measured by myelin basic protein (MBP) immunoreactivity; format: cell-based
Description: In experiments conducted in organotypic neonatal rat or mouse cerebellar slice culture, progesterone accelerated axon myelination (13,14).

PR^lacz mice with MCAO = experiment: Transient middle cerebral artery occlusion (MCAO), steroid treatment after reperfusion; format: in vivo, mouse
Protocol: In experiments conducted using progesterone receptor (PR) deficient mice (PR^−/−) compared with PR^+/− and PR^+/+ mice and both progesterone and Nestorone® were administered after ischemia and reperfusion.
In order to test the effect of steroid treatments after reperfusion, adult male PR^lacz mice were anesthetized and the middle cerebral artery (MCA) was occluded for one hour with an intraluminal filament. After ligature of the left common carotid artery, a nylon monofilament coated with thermo-melting glue was introduced through an arteriotomy performed on the external carotid artery and advanced into the internal carotid artery. Occlusion of the MCA was controlled by monitoring the cerebral blood flow within the MCA territory by laser Doppler flowmetry. The filament was withdrawn one hour after occlusion to allow reperfusion, and the common carotid artery ligature was also removed. The mice were randomly and blindly assigned to either progesterone, allopregnanolone or Nestorone®, or vehicle-treated (sesame oil; sigma). All of the steroids were initially dissolved in a small volume of ethanol and further diluted in sesame oil to obtain the desired final steroid concentrations. Injections were given interperitoneally (IP) at 1, 6, and 24 hours after MCA occlusion (MCAO) according to established neuroprotective protocols. Treated mice were killed at 48 hours after MCAO.
Cerebral infarct volumes and areas were determined after triphenyltetrazolium chloride (TTC) staining of brain sections. The details of this procedure are set forth in “Progesterone Receptors: A Key For Neuroprotection In Experimental Stroke,” Endocrinology, August 2012, 153(8), pp. 1-11, which is incorporated herein by reference thereto in its entirety. […] In FIGS. 11, 12 and 13, after the administration of progesterone and Nestorone®, in neuronal density the infarct (FIG. 11) and the penumbra (FIG. 12) can clearly be shown. In FIG. 13 the decrease in […] in the penumbra after administration of progesterone and Nestorone® is also clearly shown.

[8] = indicator of in vivo apoptotic activity

C#C[C@]1(OC(C)=O)CC[C@H]2[C@@H]3CCC4=CC(=NO)CC[C@@H]4[C@H]3CC[C@@]21CC (mixture of isomers) [norgestimate]
proliferation of progenitor cells compared with progesterone [1]: more proliferative than progesterone | NPC proliferation (BrdU incorporation) compared with progesterone [1]: more potent in cell proliferation than progesterone at all concentrations | neuroprotective efficacy against 200 μM glutamate (LDH release) compared with progesterone [2]: less potent than progesterone

CC(=O)[C@H]1CC[C@H]2[C@@H]3CCC4=CC(=O)CC[C@@H]4[C@H]3CC[C@]12C [19-norprogesterone]
protection against glutamate toxicity [3]: protected against glutamate toxicity

CC(=O)O[C@]1(C(C)=O)CC[C@H]2[C@@H]3C[C@H](C)C4=CC(=O)CC[C@]4(C)[C@H]3CC[C@@]21C [MPA, medroxyprogesterone acetate]
proliferation of progenitor cells compared with progesterone [1]: antagonistic | NPC proliferation (BrdU incorporation) compared with progesterone [1]: significantly inhibited proliferation at multiple concentrations | neuroprotective efficacy against 200 μM glutamate (LDH release) compared with progesterone [2]: less potent than progesterone | total number of BrdU+ cells per hippocampus ([4]; FACS, normalized to vehicle control, FIG. 8B): no significant effect on cell proliferation | PCNA expression at the protein level ([4]; Western blot): no significant effect | expression of alpha subunit of ATP synthase-Complex V (CVα) ([4]; Western blot, FIG. 8C): no significant effect | ratio of Bax/Bcl-2 expression (Bax/Bcl-2; in vivo): significantly increased | cell proliferation [5]: increased cell proliferation | androgenic response [6]: induce androgenic responses | glucocorticoid response [6]: induces both androgenic and glucocorticoid responses | protection against glutamate toxicity [3]: failed to protect against glutamate toxicity | effect on estrogen-induced neuroprotection when coadministered ([3]; coadministered with 17β-E2): attenuated the estrogen-induced neuroprotection

C[C@]12CC[C@@H]3c4ccc(O)cc4CC[C@H]3[C@@H]1CC[C@@H]2O [estradiol, 17β-estradiol]
protection against glutamate toxicity [3]: protected against glutamate toxicity

C#C[C@]1(O)CC[C@H]2[C@@H]3CCC4=CC(=O)CC[C@@H]4[C@H]3CC[C@@]21CC [levonorgestrel]
PCNA expression at the protein level ([4]; Western blot): no significant effect | ratio of Bax/Bcl-2 expression (Bax/Bcl-2; [8]): significantly increased

C#C[C@]1(OC(C)=O)CC[C@H]2[C@@H]3CCC4=CC(=O)CC[C@@H]4[C@H]3CC[C@@]21C [norethindrone acetate]
proliferation of progenitor cells compared with progesterone [1]: antagonistic | NPC proliferation (BrdU incorporation) compared with progesterone [1]: minimal or no effect on proliferation

C#C[C@]1(O)CC[C@H]2[C@@H]3CCC4=CC(=O)CC[C@@H]4[C@H]3CC[C@@]21C [norethindrone]
neuroprotective efficacy against 200 μM glutamate (LDH release) compared with progesterone [2]: less potent than progesterone | androgenic response [6]: exert androgenic and estrogenic responses | estrogenic response [6]: exert androgenic and estrogenic responses

C#C[C@]1(O)CC[C@H]2[C@@H]3CCC4=C(CCC(=O)C4)[C@H]3CC[C@@]21C [norethynodrel]
proliferation of progenitor cells compared with progesterone [1]: more proliferative than progesterone | NPC proliferation (BrdU incorporation) compared with progesterone, high nanomolar ranges ([1]; high nanomolar ranges): significantly more efficacious than progesterone | NPC proliferation (BrdU incorporation) compared with progesterone, low nanomolar range ([1]; low nanomolar range): comparable effects to progesterone | neuroprotective efficacy against 200 μM glutamate (LDH release) compared with progesterone [2]: more potent than progesterone at minimal effective concentrations | androgenic response [6]: exert androgenic and estrogenic responses | estrogenic response [6]: exert androgenic and estrogenic responses

CC(=O)[C@H]1CC[C@H]2[C@@H]3CCC4=CC(=O)CC[C@]4(C)[C@H]3CC[C@]12C [progesterone]
concentration of equal promyelinating activity ([7]; NES at 20 μm as active as PROG at 50 μm (FIG. 1)): 50 μm | myelination in cerebellar slices from PR knockout mice ([7]; PR knockout mice): did not increase myelination | myelination measured by myelin basic protein (MBP) immunoreactivity ([7]; cerebellar slice culture): promote dose-dependent myelination | proliferation of progenitor cells compared with progesterone [1]: increases the proliferation | NPC proliferation (BrdU incorporation) compared with progesterone [1]: comparably efficacious at their EC100 concentrations | neuroprotective efficacy against glutamate toxicity (LDH) ([2]; FIG. 5, NES and PROG at 10−7M): exerted the higher efficacy | CDC2 protein expression ([4]; Western blot): significantly increased | ratio of Bax/Bcl-2 expression (Bax/Bcl-2; [8]): no effect | efficient neuroprotective dose (PR^lacz mice with MCAO; after stroke): 8 mg/kg | microglial density in the penumbra (neuroinflammatory responses) (PR^lacz mice with MCAO; treatment after stroke): reduced microglial density | neuronal density in the infarct and in the penumbra (PR^lacz mice with MCAO; treatment after stroke): significantly increases the neuronal density | protection against glutamate toxicity [3]: protected against glutamate toxicity
